In patent US6979686B1, “Substituted pyrazoles as p38 kinase inhibitors” (Pharmacia Corporation, priority 2001, dated 2005):
Where a name gives a salt, the structure may show the parent alone. Read-outs that look alike come from different tables or passages of the source.

Columns and labels:
[1] = tested on: TNF-α, rats challenged with LPS; test: Rat assay, LPS-stimulated TNF release; format: in vivo
Experimental: The efficacy of the novel compounds in blocking the production of TNF also was evaluated using a model based on rats challenged with LPS. Male Harlen Lewis rats [Sprague Dawley Co.] were used in this model. Each rat weighed approximately 300 g and was fasted overnight prior to testing. Compound administration was typically by oral gavage (although intraperitoneal, subcutaneous and intravenous administration were also used in a few instances) 1 to 24 hours prior to the LPS challenge. Rats were administered 30 μg/kg LPS [salmonella typhosa, Sigma Co.] intravenously via the tail vein. Blood was collected via heart puncture 1 hour after the LPS challenge. Serum samples were stored at −20° C. until quantitative analysis of TNF-α by Enzyme Linked-Immuno-Sorbent Assay (“ELISA”) [Biosource]. Additional details of the assay are set forth in Perretti, M., et al., Br. J. Pharmacol. (1993), 110, 868-874, which is incorporated by reference in this application.
In vivo assessment of the ability of the compounds to inhibit LPS-stimulated TNF release in the rat is shown in the column identified as: • “Rat LPS Model, % TNF inhib dose @ predose time” wherein in the dose is milligram per kilogram (mpk) administered by oral gavage and the predose time indicates the number of hours before LPS challenge when the compound is administered.
In vivo assessment of the ability of the compounds to inhibit LPS-stimulated TNF release in the rat is shown in the column identified as: • “Rat LPS Model % Inhibition@dose@predose time” wherein the dose is milligram per kilogram (mpk) administered by oral gavage and the predose time indicates the number of hours before LPS challenge when the compound is administered.
(§1) In vitro p38 alpha kinase inhibitory data are shown in the column identified as “p38 alpha IC50 (μM)”. In vitro human whole blood assay data for measuring the ability of the compounds to inhibit TNF production in human whole blood stimulated with LPS are shown in the column identified as: “HWB IC50 (μM)”. In vivo assessment of the ability of the compounds to inhibit LPS-stimulated TNF-release in the rat is shown in the column identified as: “ratLPS/%Inh@dose(mg/kg)”, wherein the dose is in milligram per kilogram (mg/kg) administered by oral gavage, 4 hours before LPS challenge.

[2] = tested on: human TNF, human whole blood stimulated with LPS; test: TNF inhibition: human whole blood assay; format: cell-based; conditions: for TNF Inhibition-Human Whole Blood Assay: Table 9, percentage, concentration not given
Experimental: TNF Inhibition: Human Whole Blood Assay
Human peripheral blood is obtained in heparinized tubes. A 190 μL aliquot of blood is placed in each well of a 96 well u-bottom plate. […] After one hour of incubation at 37° C., […] of lipopolysaccharide (Salmonella typhosa, Sigma) in phosphate buffered saline is added resulting in a final concentration of […]. After four to five hours of incubation at 37° C., the supernatants are harvested and assayed at 1:10 or 1:20 dilutions for human TNF using ELISA.
In vitro human whole blood assay data for measuring the ability of the compounds to inhibit TNF production in human whole blood stimulated with LPS are shown in the column identified as: • “Human Whole Blood IC50, μM or %Inhib@conc. (μM)”
as §1

[3] = tested on: TNF-a, human peripheral blood mononuclear cells; test: LPS stimulation of human PBMs, TNF-a by ELISA; format: cell-based; conditions: Table 5, LPS-stimulated human PBM cells, TNF cell assay
Experimental: Method of Isolation of Human Peripheral Blood Mononuclear Cells:
Human whole blood was collected in Vacutainer tubes containing EDTA as an anticoagulant. A blood sample (7 ml) was carefully layered over 5 ml PMN Cell Isolation Medium (Robbins Scientific) in a 15 ml round bottom centrifuge tube. The sample was centrifuged at 450-500×g for 30-35 minutes in a swing out rotor at room temperature. After centrifugation, the top band of cells were removed and washed 3 times with PBS w/o calcium or magnesium. The cells were centrifuged at 400×g for 10 minutes at room temperature. The cells were resuspended in Macrophage Serum Free Medium (Gibco BRL) at a concentration of 2 million cells/ml.
LPS Stimulation of Human PBMs:
Compounds were dissolved in DMSO initially and diluted in TCM for a final concentration of 0.1% DMSO. LPS (Calbiochem, 20 ng/ml, final concentration) was then added at a volume of 0.010 ml. Cultures were incubated overnight at 37° C. Supernatants were then removed and tested by ELISA for TNF-a and IL1-b. Viability was analyzed using MTS. After 0.1 ml supernatant was collected, 0.020 ml MTS was added to remaining 0.1 ml cells.

human p38 kinase alpha = target: T1, human p38 kinase alpha (Homo sapiens, UniProt Q16539); test: p38 kinase in vitro assay, phosphorylation of biotinylated PHAS-I with 32P-ATP; format: biochemical
T1 construct: GST (N, cleaved yes); made in house; host or cells: E. coli DH10B

[4] = tested on: TNF-α, U937 human histiocytic lymphoma cell line; test: LPS stimulation of TNF production by U937 cells; format: cell-based
Procedure, shortened: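 U937 cells differentiated 24 h with 20 ng/ml PMA, rested 24-48 h, used at 2 million cells/ml. Compounds in 0.1% DMSO final; LPS (E. coli, 100 ng/ml final) stimulation for 4 h at 37° C. Released TNF-α measured by ELISA; IC50 (μM).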

[5] = tested on: TNF alpha, BALB/c mice injected with LPS; test: Mouse model of LPS-induced TNF alpha production; format: in vivo; conditions: 30 mpk oral gavage, −6 h before LPS challenge
Experimental: Mouse Model of LPS-induced TNF Alpha Production:
TNF alpha was induced in 10-12 week old BALB/c female mice by tail vein injection with 100 ng lipopolysaccharide (from S. Typhosa) in 0.2 ml saline. One hour later mice were bled from the retroorbital sinus and TNF concentrations in serum from clotted blood were quantified by ELISA.
Efficacy was determined at each time point as percent inhibition of serum TNF levels relative to LPS injected mice that received vehicle only.
In vivo assessment of the ability of the compounds to inhibit LPS-stimulated TNP release in the mouse is shown in the column identified as: • “Mouse LPS Model, % TNF inhib @ dose @ predose time” wherein in the dose is milligram per kilogram (mpk) administered by oral gavage and the predose time indicates the number of hours before LPS challenge when the compound is administered.

[6] = activated human p38 kinase alpha, PHAS-I substrate, 50 μM unlabeled ATP, read-out: p38 kinase IC50
[7] = Table 5, LPS-stimulated U937 cells, TNF-α, read-out: U937 Cell Assay IC50

T1 sequence (Q16539 whole entry): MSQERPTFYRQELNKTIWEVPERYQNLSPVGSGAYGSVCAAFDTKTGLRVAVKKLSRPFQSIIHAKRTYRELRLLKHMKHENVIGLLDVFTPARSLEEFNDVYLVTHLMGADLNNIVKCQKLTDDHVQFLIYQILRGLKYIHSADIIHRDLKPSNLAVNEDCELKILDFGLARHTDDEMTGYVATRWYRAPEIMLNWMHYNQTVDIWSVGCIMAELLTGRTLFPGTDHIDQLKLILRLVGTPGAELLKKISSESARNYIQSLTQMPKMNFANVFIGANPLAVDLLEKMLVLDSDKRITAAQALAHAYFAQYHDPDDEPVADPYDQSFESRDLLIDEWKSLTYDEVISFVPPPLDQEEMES

With `COc1ccc(-n2nc(-c3ccc(F)cc3)c(-c3ccncc3)c2-c2cnc[nH]2)cc1` [Example A-323, 4-[3-(4-fluorophenyl)-5-(1H-imidazol-4-yl)-1-(4-methoxyphenyl)-1H-pyrazol-4-yl]pyridine] the inhibition in vivo at 30 mg/kg ([1]; Rattus norvegicus, po, read-out: Rat LPS Assay % Inhibition, Table 8, dose 30.0 mg/kg) was 40% and the melting point was 124 to 126 °C.
With `Clc1ccc(-c2n[nH]c(SCCOC3CCCCO3)c2-c2ccncc2)cc1` (stereo not shown) [Example A-474] the IC50 ([2]; Homo sapiens, Table 10, read-out: TNF Inhibition-Human Whole Blood Assay) was 1.47 µM.
With `CCc1[nH]nc(-c2cccc(C)c2)c1-c1ccncc1` [Example 45] the IC50 ([3]; PBMC) was < 100 nM.
Compound “5-[2-(1,1-DIMETHYL)AMINOETHYL]-4-(4-PYRIDYL)-3-(4-FLUOROPHENYL)PYRAZOLE [Example C-114]” has an IC50 ([2]; TNF production, human whole blood stimulated with LPS, read-out: Human Whole Blood IC50, μM or % Inhib @ conc. (μM): IC50) of 1.73 µM.
In the case of `CCCc1[nH]nc(-c2cccc(C)c2)c1-c1ccncc1` [Example A-26], the IC50 (human p38 kinase alpha; [6]) is reported as 700 nM, the IC50 [4, 7] is reported as 29 nM and the IC50 [3] is reported as < 100 nM.
With `Fc1ccc(-c2n[nH]cc2-c2ccnc(NCCN3CCCCC3)c2)cc1` [Example A-375, 4-[3-(4-fluorophenyl)-1H-pyrazol-4-yl]-N-[2-(1-piperidinyl)ethyl]-2-pyridinamine] the “TNF Inhibition-Human Whole Blood Assay” value [2] was 28%.
With `Cc1[nH]nc(-c2ccc(Cl)cc2)c1-c1ccncc1` [Example 7, 4-(3-(4-chlorophenyl)-5-methyl-1H-pyrazol-4-yl)pyridine] the IC50 ([3]; PBMC) was 200 nM.
Compound `Clc1ccc(-c2n[nH]cc2-c2ccncn2)cc1` [Example A-310, 4-[3-(4-chlorophenyl)-1H-pyrazol-4-yl]pyrimidine] has a melting point of 218.17 °C.
`Clc1ccc(-c2n[nH]c(SCCN3CCCC3)c2-c2ccncc2)cc1` [Example A-460] showed a melting point of 189.9 to 190.1 °C.
`O=C(O)C(Cc1cnc[nH]1)Sc1[nH]nc(-c2ccc(Cl)cc2)c1-c1ccncc1` (stereo not shown) [Example A-471] gave a melting point of 163 to 165 °C.
For `O=C(C(=C1SCS1)c1ccncc1)c1ccc(OC(F)(F)F)cc1` [Example A-395], the melting point was 182.6 to 183 °C.
For `Fc1ccc(-c2n[nH]c(N3CCC4(CC3)OCCO4)c2-c2ccncc2)cc1` [Example A-380, 8-[5-(4-fluorophenyl)-4-(4-pyridinyl)-1H-pyrazol-3-yl]-1,4-dioxa-8-azaspiro[4.5]decane], the “TNF Inhibition-Human Whole Blood Assay” value [2] was 32%.
`N#Cc1ccc(C(=O)C(=C2SCS2)c2ccncc2)cc1` [Example A-396] gave a melting point of 193.3 to 193.4 °C.
With `CCc1[nH]nc(-c2ccccc2)c1-c1ccncc1` [Example A-43] the IC50 (human p38 kinase alpha; [6]) was < 100 nM, the IC50 [4, 7] was 243 nM and the IC50 [3] was < 100 nM.
For `CCn1nc(C)c(-c2ccncc2)c1-c1ccc(Cl)cc1` [Example A-207, 4-[3-(4-chlorophenyl)-2-ethyl-5-methyl-1H-pyrazol-4-yl]pyridine], the melting point was 153.46 °C.
For `O=C(C1CC1)N1CCC(c2[nH]nc(-c3ccc(F)cc3)c2-c2ccncc2)CC1` [Example B-1364], the inhibition in vivo at 30 mg/kg ([5]; Mus musculus, read-out: Mouse LPS Model % TNF inhib @ dose @ predose time) was 53%, the IC50 (human p38 kinase alpha; in vitro P38-alpha kinase, read-out: P38 alpha kinase IC50) was 9 nM and the inhibition in vivo at 3 mg/kg ([1]; Rattus norvegicus, po, 3 mpk oral gavage, −4 h before LPS challenge, read-out: Rat LPS Model % inhib @ dose @ predose time) was 17%. For the same compound, the IC50 ([4]; Homo sapiens, U-937, TNF production, human U937 cells stimulated with LPS, read-out: U937 Cell IC50) was 270 nM.
For `Clc1ccc(-c2n[nH]c(SC3CCNCC3)c2-c2ccncc2)cc1` [A-459 (salt)], the IC50 ([2]; Table 10, read-out: TNF Inhibition-Human Whole Blood Assay) was 0.28 µM.
With `OC1CCN(c2[nH]nc(-c3ccc(F)cc3)c2-c2ccncc2)CC1` [Example A-379, 1-[5-(4-fluorophenyl)-4-(4-pyridinyl)-1H-pyrazol-3-yl]-4-piperidinol] the “TNF Inhibition-Human Whole Blood Assay” value [2] was 44%.
In the case of `Cc1[nH]nc(-c2ccsc2)c1-c1ccncc1` [Example A-49], the IC50 [3] is reported as 6800 nM.
With `O=C(NCCCc1[nH]nc(-c2ccc(F)cc2)c1-c1ccncc1)C1CC1` [Example B-1166] the “Mouse LPS Model % TNF inhib @ dose @ predose time” value [5] was 50% @ 30 mpk @ −6 h, the “P38 alpha kinase % inhib @ conc. (uM)” value (human p38 kinase alpha; @ 1.0 uM) was 77.0% @ and the “Rat LPS Model % inhib @ dose @ predose time” value ([1]; 3 mpk oral gavage, −4 h before LPS challenge) was 50% @ 3 mpk @ −4 h.
In the case of `O=C1CCN(c2[nH]nc(-c3ccc(F)cc3)c2-c2ccncc2)CC1` [Example A-378, 1-[5-(4-fluorophenyl)-4-(4-pyridinyl)-1H-pyrazol-3-yl]-4-piperidinone], the “TNF Inhibition-Human Whole Blood Assay” value [2] is reported as 49%.
